In patent publication US4414224A (SmithKline Beckman Corporation, priority 1982, dated 1983):

Tests used:
[1] = system: alpha1; experiment: Isolated perfused rabbit ear artery preparation, vasoconstriction indicative of alpha1 activity; assay type: cell-based
From the text: The isolated perfused rabbit ear artery preparation described by J. P. Hiebel and R. G. Pendleton, Arch.

[2] = system: normal anesthetized dog; experiment: Intravenous infusion in the normal anesthetized dog (MAP, RBF, RVR, HR); assay type: in vivo; conditions: i.v. infusion
[3] = 0.3 μg/kg/min (base), A in 10% dimethylsulfoxide in 0.9% saline
[4] = 3 μg/kg/min (base), dopamine run in each test for comparison

| Compound | concentration at which vasoconstriction indicative of alpha1 activity was observed [1] | % Change HR (heart rate) [2, 3] | % Change MAP (mean arterial blood pressure) [2, 3] | % Change RBF (mean renal blood flow) [2, 3] | % Change RVR (renal vascular resistance) [2, 3] | % Change HR (heart rate) [2, 4] | % Change MAP (mean arterial blood pressure) [2, 4] | % Change RBF (mean renal blood flow) [2, 4] | % Change RVR (renal vascular resistance) [2, 4] | % Change HR (heart rate) ([2]; 30 μg/kg/min (base)) | % Change MAP (mean arterial blood pressure) ([2]; 30 μg/kg/min (base)) | % Change RBF (mean renal blood flow) ([2]; 30 μg/kg/min (base)) | % Change RVR (renal vascular resistance) ([2]; 30 μg/kg/min (base)) | % Change HR (heart rate) ([2]; 300 μg/kg/min (base)) | % Change MAP (mean arterial blood pressure) ([2]; 300 μg/kg/min (base)) | % Change RBF (mean renal blood flow) ([2]; 300 μg/kg/min (base)) | % Change RVR (renal vascular resistance) ([2]; 300 μg/kg/min (base)) |
| --- | --- | --- | --- | --- | --- | --- | --- | --- | --- | --- | --- | --- | --- | --- | --- | --- | --- |
| CCCN(CCC)CCc1ccc(O)c2c1CC(=O)N2 [4-(2-di-n-propylaminoethyl)-7-hydroxy-2(3H)-indolone] | about 1000 nM |  |  |  |  |  |  |  |  |  |  |  |  |  |  |  |  |
| Br.CCCN(CCC)CCc1ccc(O)c2c1CC(=O)N2 [A, 4-(2-di-n-propylaminoethyl)-7-hydroxy-2(3H)-indolone hydrobromide] |  | +3.6% | -5.1% | +4.6% | -0.5% | -11.2% | -24.7% | +24.7% | -39.1% | -6.9% | +28.4% | -19.4% | +59.2% |  |  |  |  |
| CCCN(CCC)CCc1ccc(OC)c2c1CC(=O)N2.Cl [B, 4-(2-di-n-propylaminoethyl)-7-methoxy-2(3H)-indolone hydrochloride] |  |  |  |  |  | -4.5% | -3.6% | -11.6% | +8.9% | -8.3% | -7.8% | +2.8% | -9.5% | -7.8% | +0.1% | +0.7% | +1.6% |
| Br.NCCc1ccc(O)c2c1CC(=O)N2 [C, 4-(2-aminoethyl)-7-hydroxy-2(3H)-indolone hydrobromide] |  |  |  |  |  | -2.9% | -10.6% | -12.7% | +4.1% | -2.9% | -16.1% | -12.3% | -2.7% | -15.8% | +62.6% | -32.7% | +167.0% |
| COc1ccc(CCN)c2c1NC(=O)C2.Cl [D, 4-(2-aminoethyl)-7-methoxy-2(3H)-indolone hydrochloride] |  |  |  |  |  | -1.5% | -0.7% | +6.7% | -7.0% | -2.8% | -2.3% | +7.5% | -9.2% | -1.6% | -9.8% | +2.1% | -9.4% |
